Measured values as given in PubChem BioAssay (NCI).
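Grown in 96-well plates, cells were treated for 48 hours with each compound at five concentrations. Insufficient inhibition: endpoint recorded as highest concentration tested. GI50 is the concentration that inhibits growth by half. TGI marks complete inhibition of growth.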

Tests used:
Assay in all cases: inhibition of tumour cell growth, NCI panel, 48 h
DU-145 prostate = test system: DU-145 prostate
NCI/ADR-RES ovarian = test system: NCI/ADR-RES ovarian
OVCAR-3 ovarian = test system: OVCAR-3 ovarian
HOP-92 NSCLC = test system: HOP-92 NSCLC
SF-268 CNS = test system: SF-268 CNS
SF-539 CNS = test system: SF-539 CNS
M14 melanoma = test system: M14 melanoma
HS 578T breast = test system: HS 578T breast
SW-620 colon = test system: SW-620 colon
SF-295 CNS = test system: SF-295 CNS

| SMILES | TGI (DU-145 prostate) [µM] | TGI (NCI/ADR-RES ovarian) [µM] | TGI (OVCAR-3 ovarian) [µM] | TGI (HOP-92 NSCLC) [µM] | TGI (SF-268 CNS) [µM] | TGI (SF-539 CNS) [µM] | TGI (M14 melanoma) [µM] | TGI (HS 578T breast) [µM] | TGI (SW-620 colon) [µM] | TGI (SF-295 CNS) [µM] | GI50 (DU-145 prostate) [µM] | GI50 (NCI/ADR-RES ovarian) [µM] | GI50 (OVCAR-3 ovarian) [µM] | GI50 (HOP-92 NSCLC) [µM] | GI50 (SF-268 CNS) [µM] | GI50 (SF-539 CNS) [µM] | GI50 (M14 melanoma) [µM] | GI50 (HS 578T breast) [µM] | GI50 (SW-620 colon) [µM] | GI50 (SF-295 CNS) [µM] |
| --- | --- | --- | --- | --- | --- | --- | --- | --- | --- | --- | --- | --- | --- | --- | --- | --- | --- | --- | --- | --- |
| C=C(Nc1ccc([N+](=O)[O-])cc1[N+](=O)[O-])c1c/c(=N\NC(N)=S)c2ccccc2o1 | > 100 | > 100 | 86.1 | > 100 | > 100 | 55.7 | > 100 | > 100 | > 100 | > 100 | – | – | – | – | – | – | – | – | – | – |
| CN/N=C(\C)C(CN(C)C)C(c1ccccc1)c1c(O)c2ccccc2oc1=O (stereo unspecified) | > 100 | > 100 | > 100 | 6.78 | > 100 | > 100 | > 100 | > 100 | > 100 | > 100 | – | – | – | – | – | – | – | – | – | – |
| CCCC(CCC)C(=O)OCC1(CO)C/C(=C\c2ccc(F)cc2)C(=O)O1 (stereo unspecified) | 25.7 | 33.4 | 31.2 | 12.5 | 26.7 | 24.4 | 24.8 | 43.5 | 20.7 | 17.4 | 12.7 | 13.9 | 17.1 | 0.487 | 13.2 | 12 | 8.45 | 14.3 | 6.93 | 1.99 |
| O=C(O)C(Cl)(c1ccccc1)c1ccccc1 | > 100 | > 100 | > 100 | > 100 | > 100 | > 100 | > 100 | > 100 | > 100 | > 100 | – | – | – | – | – | – | – | – | – | – |
| CCn1c(-c2cc3ccccc3cc2O)nn(C(=O)c2c(Cl)cccc2Cl)c1=S | > 50 | > 50 | > 50 | > 50 | > 50 | > 50 | 21.9 | 21.5 | > 50 | > 50 | 41.1 | > 50 | 23.7 | > 50 | > 50 | > 50 | 7.11 | 8.76 | 15.3 | 34.6 |
| Cc1cc(CC(C)CC(C)(C)C)n(O)c(=O)c1 (stereo unspecified) (tested in a mixture with another compound) | > 41.3 | 4.02 | 18.6 | 1.88 | 16.1 | 13.2 | 1.16 | > 62.1 | > 81.1 | 18.5 | 0.505 | 0.373 | 0.745 | 0.174 | 0.409 | 0.39 | 0.285 | 8.07 | 0.478 | 0.447 |
| COc1cccc(C2c3cc4c(cc3OC(N3CCCC3)C2C)OCO4)c1O (stereo unspecified) | > 36.9 | 47.1 | 8.02 | 41.5 | 70.1 | 10.6 | 12.6 | 18.5 | > 100 | 15.4 | – | – | – | – | – | – | – | – | – | – |
| COc1cc(-c2nc(-c3nc4ccccc4[nH]3)cc3c2[nH]c2ccccc23)cc(OC)c1OC | > 100 | > 100 | > 100 | 5.38 | > 100 | > 100 | > 100 | > 100 | > 100 | – | 6.27 | 3.59 | 6.2 | 0.526 | 4.81 | 23.1 | 4.18 | 4.44 | 7.14 | – |
| O=C(/C=C/c1ccccc1)n1c(-c2ccc(Cl)cc2)nc2ccccc21 | 4.93 | 61.3 | 2.64 | 3.82 | 6.14 | 2.92 | 5.05 | 17.9 | 5.03 | 6.46 | 1.8 | 1.49 | 1.11 | 1.46 | 2.1 | 1.47 | 1.91 | 2.57 | 1.45 | 2.5 |
| CCCCCCCCCCCCCCCCCC(=O)OCC(COC(=O)CCCN)OC(=O)CCCN (stereo unspecified) | 33.7 | 37 | 35.3 | 26.6 | 45.3 | 32.2 | 31.4 | 43.7 | 38.2 | 35.1 | – | – | – | – | – | – | – | – | – | – |
| COC(=O)Cc1ccc(Oc2cnc3cc(F)c(F)cc3n2)cc1 | > 100 | 81.1 | > 100 | > 100 | > 100 | > 100 | – | > 100 | > 100 | > 100 | > 100 | 23.8 | 93.3 | > 100 | > 100 | > 100 | – | > 100 | > 100 | > 100 |
| COc1cccc(/C=C/C(=O)c2ccc(Cl)cc2Cl)c1 | 17.3 | 33.1 | 25.2 | 9.44 | 27.4 | 23 | 22.3 | > 50 | 7.62 | > 50 | 9.42 | 11.6 | 10.9 | 0.0134 | 11.2 | 12.2 | 10.3 | 22.3 | 1.82 | 28.2 |
| CC(C)(C)[Si](C)(C)OC1[C@@H](O[Si](C)(C)C(C)(C)C)[C@@H](CNC(=O)NC(=O)CCl)O[C@H]1n1cnc2c(NC(=O)Nc3ccccc3)ncnc21 (stereo partly specified) | 5.32 | 8.03 | 1.49 | 0.9 | 1.44 | 1.58 | 1.98 | 12.5 | 1.36 | 0.922 | 1.73 | 1.24 | 0.446 | 0.211 | 0.665 | 0.837 | 0.978 | 1.3 | 0.441 | 0.235 |
| Cn1c2ccc(Br)cc2c2c3c(c4c5ccccc5[nH]c4c21)C(=O)N(O)C3=O | 0.57 | > 100 | 0.452 | 0.451 | 0.72 | 0.217 | 0.307 | 1.04 | 0.394 | 0.633 | 0.0871 | 0.357 | 0.191 | 0.0893 | 0.0763 | 0.073 | 0.0877 | 0.291 | 0.0787 | 0.223 |
